Bounds are passed on as bounds.

Data set [1] in a line: Oral bioavailability in rat. The data set is classed as ADME, organism-based. The conditions noted are these: in vivo.
Data set [2] relates to Human immunodeficiency virus 1. Briefly: Antiviral activity against HIV-1 3B infected in human MT4 cells assessed as reduction in virus-induced cytopathic effect incubated for 5 days by MTT assay. It is filed as functional, organism-based. To be noted: Human immunodeficiency virus 1, 3B, MT4, 120 h. (Protection from cytopathic effect is a common read-out in antiviral testing.)

Data set [3] is described as follows: Cytotoxicity against human MT4 cells assessed as reduction in cell viability treated for 5 days by MTT assay. To be noted: time 5 day. The data set is classed as toxicity, cell-based. On the technique in general: Formazan colour is commonly taken as a measure of viable cells.
Data set [4] has as its system SARS-CoV-2. Briefly: Antiviral activity against SARS-CoV-2 Omicron assessed as reduction of viral growth. The conditions noted are these: Severe acute respiratory syndrome coronavirus 2, Omicron. It is filed as functional, organism-based.
The target in data set [5] is Human immunodeficiency virus type 1 protease (Human immunodeficiency virus 1, UniProt Q72874). Put plainly: Inhibition of HIV-1 protease.
Data set [6] has as its system SARS-CoV-2. Briefly: Antiviral activity against SARS-Co-V-2 infected in Vero E6 cells assessed as reduction in viral replication. It is filed as functional, organism-based. The conditions noted are these: Severe acute respiratory syndrome coronavirus 2, Vero C1008.
Data set [7] relates to SARS-CoV-2. Briefly: Antiviral activity against SARS-CoV-2 infected in human A549-ACE2 cells. The data set is classed as functional, organism-based. The conditions noted are these: Severe acute respiratory syndrome coronavirus 2, A549-ACE2.
The test system of a further data set is Hepatitis C virus. Put plainly: Antiviral activity against HCV infected in human Huh-7.5.1 cells assessed as reduction in viral infection incubated for 48 hrs by MTS assay. To be noted: Huh-7.5.1, 48 h. It is filed as functional, organism-based, Hepacivirus hominis.
For data set [8], the system named is SARS-CoV-2. Briefly: Antiviral activity against SARS-CoV-2 in human A549-ACE2 cells assessed as reduction in viral growth. The data set is classed as functional, organism-based. To be noted: Severe acute respiratory syndrome coronavirus 2, A549-ACE2.
In data set [9] the test system is SARS-CoV-2. Briefly: Antiviral activity against SARS-CoV-2 B.1 infected in Green monkey VeroE6/TMPRSS2 cells assessed as inhibition of viral replication incubated for 2 days by qRT-PCR analysis. The data set is classed as functional, organism-based. The conditions noted are these: Severe acute respiratory syndrome coronavirus 2, B.1, VeroE6/TMPRSS2, 48 h. On the technique in general: In qPCR the cycle at which signal appears reflects the starting amount.

Data set [10] is described as follows: Inhibition of DENV RNA-dependent RNA polymerase activity. Also on record: species or system Dengue virus.
Data set [11] can be described thus: Oral bioavailability in Beagle dog at 3 mg/kg. The data set is classed as ADME, organism-based, Canis lupus familiaris. The conditions noted are these: in vivo.
The nature of data set [12]: Cytotoxicity against African green monkey Vero E6 cells assessed as cell growth inhibition measured after 48 hrs by CCK-8 assay. To be noted: chlorocebus sabaeus. It is filed as toxicity, cell-based, Vero C1008.
Data set [13] deals with SARS-CoV-2. Briefly: Antiviral activity against SARS-COV-2 infected in African green monkey Vero E6 cells assessed as reduction in viral growth. The conditions noted are these: Severe acute respiratory syndrome coronavirus 2, Vero C1008. It is filed as functional, organism-based.
A short description of data set [14]: Oral bioavailability in Sprague-Dawley rat at 3 mg/kg by HPLC analysis. The data set is classed as ADME, organism-based. The conditions noted are these: in vivo.
A short description of data set [15]: Oral bioavailability in monkey at 3 mg/kg, HPLC analysis. The data set is classed as ADME, organism-based, Macaca mulatta. The conditions noted are these: rhesus monkey, in vivo.
Data set [16] is described as follows: Oral bioavailability in human at 2 mg. It is filed as ADME, organism-based. The conditions noted are these: in vivo.
A short description of data set [17]: Plasma protein binding in rat assessed as free fraction by equilibrium dialysis analysis. It is filed as ADME, cell-free.
Data set [18] relates to SARS-CoV-2. Put plainly: Antiviral activity against SARS-CoV-2 infected in African green monkey Vero E6 cells assessed as reduction in infection measured after 24 hrs by Plaque assay. The data set is classed as functional, organism-based. The conditions noted are these: Severe acute respiratory syndrome coronavirus 2, Vero C1008, 24 h.
Data set [19] can be described thus: Selectivity index, ratio of CC50 for African green monkey Vero cells to EC50 for SARS-COV-2. The data set is classed as cell-based. To be noted: read-out: Ratio CC50/EC50.
Data set [20] in a line: Oral bioavailability in rat at 2 mg/kg by LC-MS/MS analysis. The data set is classed as ADME, organism-based. The conditions noted are these: in vivo.
Data set [21] deals with SARS-CoV-2. Briefly: Antiviral activity against luciferase-expressing pseudovirus encoding SARS-CoV-2 Omicron expressing S protein infected in human 293T/ACE2 cells assessed as reduction of viral growth measured after 48 hrs by luciferase assay. The data set is classed as functional, organism-based. The conditions noted are these: Severe acute respiratory syndrome coronavirus 2, 293T/ACE2, 48 h.

Data set [22] relates to SARS-CoV-2. Put plainly: Antiviral activity against SARS-CoV-2 infected in human A549-ACE2 cells assessed as reduction in viral replication. The conditions noted are these: Severe acute respiratory syndrome coronavirus 2, A549-ACE2. The data set is classed as functional, organism-based.
The test system of data set [23] is SARS-CoV-2. Briefly: Antiviral activity against SARS-CoV-2 infected in African green monkey Vero E6 cells assessed as reduction in cell growth. The data set is classed as functional, organism-based. To be noted: Severe acute respiratory syndrome coronavirus 2, Vero C1008.
The subject of data set [24] is Respiratory syncytial virus. Put plainly: Antiviral activity against Respiratory syncytial virus. It is filed as functional, organism-based. To be noted: human respiratory syncytial virus.
The nature of data set [25]: Inhibition of HIV-1 […]. Also on record: species or system Human immunodeficiency virus 1.
Data set [26] addresses Replicase polyprotein 1ab (Severe acute respiratory syndrome coronavirus 2, UniProt P0DTD1). Briefly: Inhibition of N-terminal His6-tagged recombinant full length SARS-CoV-2 3CLpro expressed in Escherichia coli BL21(DE3) using MCA-AVLQSGFR-Lys(Dnp)-Lys-NH2 as fluorogenic substrate preincubated with compound for 10 mins followed by substrate addition by FRET assay.
Another data set concerns the target Replicase polyprotein 1a (Severe acute respiratory syndrome-related coronavirus, UniProt P0C6U8). Put plainly: Inhibition of SARS-CoV 3CLpro.
The subject of data set [27] is SARS-CoV-2. Briefly: Antiviral activity against SARS-CoV-2 infected in Vero E6 cells assessed as reduction in viral replication. The data set is classed as functional, organism-based. To be noted: Severe acute respiratory syndrome coronavirus 2, Vero C1008.

In general, bioavailability refers to the share of a dose that reaches the circulation, judged against a reference dose that is usually intravenous. As usually defined, the EC50 is the concentration giving half of the maximal effect. A word on the CC50: it is the concentration that lowers cell viability or growth by half. With `[2H]c1cc([C@]2(C#N)O[C@H](CO)[C@@H](O)[C@H]2O)n2ncnc(N)c12`, the bioavailability in data set [1] turned out to be 21.7%. For the same compound, the EC50 in data set [2] stood at 390 nM. The CC50 at 120 h in data set [3] was over 500000 nM.
Turning to `O=C1C=C(Nc2ccccc2C2CCNCC2)C2=NS(=O)(=O)c3cccc1c32`, the EC50 in the data set with SARS-CoV-2 [4] came to 33 nM.
Broadly, the IC50 is the concentration needed to halve the response being measured. As to `[N-]=[N+]=N[C@]1(CO)O[C@@H](n2ccc(N)nc2=O)[C@H](O)[C@@H]1O` [4'-AZIDOCYTIDINE], the IC50 in data set [5] was 1280 nM.
`COc1ccc2cc1Oc1ccc(cc1)C[C@H]1c3c(cc4c(c3Oc3cc5c(cc3OC)CCN(C)[C@@H]5C2)OCO4)CCN1C` [CEPHARANTHINE]: in the data set on SARS-CoV-2 [6], the EC50 stood at 980 nM. In addition, the IC50 in the data set on SARS-CoV-2 [7] is 240 nM; in the data set with Hepatitis C virus it was 60 nM; in the data set on SARS-CoV-2 [8], 240 nM; in the data set with SARS-CoV-2 [9] it was 1900 nM.
In the case of `Br.[2H]c1cc([C@]2(C#N)O[C@H](COC(=O)C(C)C)[C@@H](OC(=O)C(C)C)[C@H]2OC(=O)C(C)C)n2ncnc(N)c12` [DEUREMIDEVIR HYDROBROMIDE], the EC50 in [10] and in [2] was 240 nM each time. Besides, the bioavailability in data set [11] and in data set [1] was 80% in each case.
As to `CC[C@H](C)[C@@H](C(=O)O[C@@H](CC(C)C)C(=O)N[C@@H](CC(C)C)C(=O)N[C@@H](C)/C=C/C(=O)N1C(=O)C=C(OC)[C@@H]1C)N(C)C` [GALLINAMIDE A], the CC50 at 48 h in data set [12] came out at 88 nM. In addition, in the data set on SARS-CoV-2 [13], the EC50 came out at 28 nM.
The term fraction unbound denotes the share of the substance not bound to proteins or other matrix. Turning to `N#C[C@@]1(c2ccc3c(N)ncnn23)O[C@H](CO)[C@@H](O)[C@H]1O` [GS-441524], the bioavailability in data set [14] is 16%; in [15] it was under 8%; in data set [16], 13%; in data set [20] it was 50%. Also, in [17], the fraction unbound stood at 0.62. In addition, the values for the EC50 (with SARS-CoV-2 [18]; in [2]) were 390 nM and 590 nM, respectively. Further, the selectivity ratio in data set [19] is over 1280. For the same compound, the CC50 at 120 h in data set [3] was over 500000 nM.
Take `CC[C@H](C)[C@H]1NC(=O)[C@@H](NC(=O)[C@@H](CC(C)C)N(C)C(=O)[C@@H]2CCCN2C(=O)C(C)=O)[C@@H](C)OC(=O)[C@H](Cc2ccc(OC)cc2)N(C)C(=O)[C@@H]2CCCN2C(=O)[C@H](CC(C)C)NC(=O)[C@@H](C)C(=O)[C@H](C(C)C)OC(=O)C[C@@H]1O` [PLITIDEPSIN]: the EC50 in the data set on SARS-CoV-2 [21] amounted to 350 nM; in the data set on SARS-CoV-2 [22], 100 nM; with SARS-CoV-2 [23] it was 0.7 nM.
Compound `N#C[C@@]1(c2ccc3c(N)ncnn23)O[C@H](COP(=O)(O)OP(=O)(O)OP(=O)(O)O)[C@@H](O)[C@H]1O` [RDV-TP] yielded a concentration for a half-maximal effect (EC50) in [24] of 13 nM.
In data set [25], `[N-]=[N+]=N[C@]1(CO)O[C@@H](n2ccc(N)nc2=O)[C@@H](F)[C@@H]1O` [RO-0622] came in with an EC50 of 1200 nM.
Turning to `O=C(OC[C@H]1O[C@@H](OC(=O)c2cc(O)c(O)c(OC(=O)c3cc(O)c(O)c(O)c3)c2)[C@H](OC(=O)c2cc(O)c(O)c(OC(=O)c3cc(O)c(O)c(O)c3)c2)[C@@H](OC(=O)c2cc(O)c(O)c(OC(=O)c3cc(O)c(O)c(O)c3)c2)[C@@H]1OC(=O)c1cc(O)c(O)c(OC(=O)c2cc(O)c(O)c(O)c2)c1)c1cc(O)c(O)c(OC(=O)c2cc(O)c(O)c(O)c2)c1` [TANNIC ACID], the EC50 in data set [26] is 585 nM; on Replicase polyprotein 1a, 8310 nM; with SARS-CoV-2 [27] it was 12900 nM.
As for `N#Cc1cn([C@@H]2O[C@H](CO)[C@@H](O)[C@H]2O)c2ncnc(N)c12` [TOYOCAMYCIN], the EC50 in the data set with SARS-CoV-2 [18] stood at 590 nM.
Regarding `Nc1ncnc2c1ccn2[C@@H]1O[C@H](CO)[C@@H](O)[C@H]1O` [TUBERCIDIN], the EC50 with SARS-CoV-2 [18] amounted to 590 nM.

(Values after ChEMBL document CHEMBL5335778, “Bench-to-bedside: Innovation of small molecule anti-SARS-CoV-2 drugs in China” (Eur J Med Chem, 2023).)
